Reference: publication PMC5378956, “Inhibition of delta-secretase improves cognitive functions in mouse models of Alzheimer's disease” (Nature Communications, 2017)
Where two headings read alike, the source gives them in different places.

Assays:
[1] = biological target: T1, δ-secretase (Homo sapiens, UniProt Q99538); assay: IC50 assay with purified recombinant δ-secretase (AEP), substrate Cbz-Ala-Ala-Asn-AMC; type: biochemical
T1 construct: tested with purified active δ-secretase, IC50 values for the top 8 candidates were calculated; purchased Sino Biological (Beijing, China)
T1 sequence (Q99538 18-323 limits assumed): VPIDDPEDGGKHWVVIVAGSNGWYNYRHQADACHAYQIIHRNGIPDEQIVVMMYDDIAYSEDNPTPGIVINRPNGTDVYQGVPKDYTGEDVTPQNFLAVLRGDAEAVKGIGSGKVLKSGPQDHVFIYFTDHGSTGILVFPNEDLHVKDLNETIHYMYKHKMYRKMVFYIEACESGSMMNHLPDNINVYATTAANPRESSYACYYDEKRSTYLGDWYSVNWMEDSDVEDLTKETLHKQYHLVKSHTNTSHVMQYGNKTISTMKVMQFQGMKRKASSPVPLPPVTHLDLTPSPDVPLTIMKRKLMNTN
Protocol: δ-secretase – 50 nM enzyme was pre-incubated with inhibitor in assay buffer (50 mM Sodium Citrate pH 5.5, 0.1% CHAPS, 60 mM Na2HPO4, 1 mM EDTA) for 10 min at 37 °C. The reaction was initiated on addition of 10 μM Cbz-Ala-Ala-Asn-AMC (Bachem).
(§1) To determine the IC50 values of the compounds towards δ-secretase, cathepsin-S, cathepsin-L, caspase-3 and caspase-8, purified recombinant enzyme was incubated in appropriate assay buffers in the presence of increasing concentrations of inhibitors. The formation of fluorescent product was monitored in duplicate reactions and the data were fit to appropriate equations to calculate the IC50 values.

[2] = biological target: T2, cathepsin-S (Homo sapiens, UniProt P25774); assay: IC50 assay with recombinant cathepsin-S; type: biochemical; settings: for IC50: mean±s.d.
T2 construct: purchased Athens Research and Technology (Athens, GA)
Protocol: Cathepsin-S – 100 nM enzyme was pre-incubated with inhibitor in assay buffer (100 mM NaH2PO4 pH 6.5, 100 mM NaCl) for 10 min at 37 °C. The reaction was initiated on addition of 25 μM substrate (Boc-Val-Leu-Lys-AMC (Bachem).
as §1

[3] = biological target: cathepsin-L (Homo sapiens, UniProt P07711); assay: IC50 assay with cathepsin-L; type: biochemical; settings: for IC50: mean±s.d.
Protocol: Cathepsin-L – 100 nM enzyme was pre-incubated with inhibitor in assay buffer (100 mM Sodium Acetate pH 5.5, 1 mM EDTA) for 10 min at 37 °C. The reaction was initiated on addition of 25 μM substrate (D-Val-Leu-Lys-AMC (Bachem).
as §1

[4] = biological target: T3, caspase-3 (Homo sapiens, UniProt P42574); assay: IC50 assay with recombinant caspase-3; type: biochemical; settings: for IC50: mean±s.d.
T3 construct: purchased Millipore (Billerica, MA)
T3 sequence (P42574 29-175 limits assumed): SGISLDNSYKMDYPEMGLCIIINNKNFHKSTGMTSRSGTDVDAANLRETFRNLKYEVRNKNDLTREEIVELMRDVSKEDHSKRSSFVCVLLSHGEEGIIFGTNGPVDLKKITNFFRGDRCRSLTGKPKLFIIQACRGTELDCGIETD
T3 sequence (P42574 176-277 limits assumed): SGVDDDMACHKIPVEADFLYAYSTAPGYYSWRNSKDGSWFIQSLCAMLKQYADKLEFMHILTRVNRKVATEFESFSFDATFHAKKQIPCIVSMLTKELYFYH
Protocol: (§2) Caspase-3 and 8 – The enzyme was pre-incubated with inhibitor in assay buffer (100 mM HEPES pH 7.4, 0.1% CHAPS, 10% Sucrose) for 10 min at 37 °C.
as §1

[5] = biological target: T4, caspase-8 (Homo sapiens, UniProt Q14790); assay: IC50 assay with recombinant caspase-8; type: biochemical; settings: for IC50: mean±s.d.
T4 construct: purchased Millipore (Billerica, MA)
Protocol: as §2, §1

[6] = biological target: T1, δ-secretase; assay: DTT and L-cysteine reversibility of δ-secretase inhibition; type: biochemical; settings: 10 mM DTT or L-cysteine, inhibitor at its IC50
[7] = biological target: T5, δ-secretase in Pala cells (Homo sapiens, UniProt Q99538); assay: δ-secretase inhibition in intact Pala cells; settings: for IC50 towards δ-secretase in Pala cells: intact cells, 2 h incubation, mean±s.d.
T5 sequence (Q99538 18-433): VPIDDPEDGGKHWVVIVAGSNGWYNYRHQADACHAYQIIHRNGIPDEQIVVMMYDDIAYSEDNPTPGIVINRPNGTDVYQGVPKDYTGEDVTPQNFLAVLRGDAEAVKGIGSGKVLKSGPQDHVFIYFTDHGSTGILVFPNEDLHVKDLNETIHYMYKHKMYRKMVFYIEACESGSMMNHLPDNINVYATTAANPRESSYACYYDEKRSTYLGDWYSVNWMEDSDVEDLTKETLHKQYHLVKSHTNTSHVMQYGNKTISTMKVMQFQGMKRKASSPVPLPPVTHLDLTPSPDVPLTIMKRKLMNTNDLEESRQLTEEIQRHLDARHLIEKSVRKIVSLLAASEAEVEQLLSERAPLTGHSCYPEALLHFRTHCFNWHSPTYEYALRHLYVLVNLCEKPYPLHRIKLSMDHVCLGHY

[8] = in vitro; settings: human, Caco-2
Protocol: (§3) Supplementary Table 3: Caco-2 permeability and BBB-PAMPA permeability
(§4) For CaCo-2 permeability assay, cells were incubated with 10 µM of these reagents in
(§5) buffers for 2 h, and the receiver side buffer is removed for analysis by LC/MS/MS. Efflux […]
(§6) LLOQ: Lower Limit of Quantification; Papp: apparent permeability.

[9] = Liver microsomal stability, human; settings: human, microsomes, 0.5 h, pH 7.4
Protocol: (§7) Supplementary Table 4: Liver microsomal stability
(§8) Compound Species Mean Remaining Parent Mean Remaining Parent
(§9) (with NADPH) (NADPH-free)
(§10) The test agents were incubated in duplicate with microsomes at 37 °C for 30 min. The reaction contained microsomal protein in 100 mM potassium phosphate, 2 mM NADPH, 3 mM MgCl2, pH 7.4. A control was run for each test agent omitting NADPH to detect NADPH-free degradation. Data are reported as % remaining of parent compound. ND, Peak not detected due to bioanalysis issue (poor ionization).

[10] = Liver microsomal stability, mouse; settings: mouse, microsomes, 0.5 h, pH 7.4
Protocol: as §7, §8, §9, §10

[11] = test system: Caco-2 monolayer; assay: Caco-2 monolayer permeability screen; settings: 10 µM, 2 h
Protocol: as §3, §4, §5, §6

[12] = biological target: CYP3A4 (Homo sapiens, UniProt P08684); assay: CYP inhibition screening in microsomes; settings: pH 7.4, probe midazolam
[13] = test system: CYP3A; assay: CYP inhibition screening in microsomes; settings: human, pH 7.4, probe testosterone
[14] = biological target: CYP2C9 (Homo sapiens, UniProt P11712); assay: CYP inhibition screening in microsomes; settings: pH 7.4
[15] = biological target: CYP2D6 (Homo sapiens, UniProt P10635); assay: CYP inhibition screening in microsomes; settings: pH 7.4
[16] = biological target: CYP2C19 (Homo sapiens, UniProt P33261); assay: CYP inhibition screening in microsomes; settings: pH 7.4
[17] = biological target: T6, CYP1A2 (Homo sapiens, UniProt P05177); assay: CYP inhibition screening in microsomes; settings: pH 7.4
T6 sequence (P05177 1-516): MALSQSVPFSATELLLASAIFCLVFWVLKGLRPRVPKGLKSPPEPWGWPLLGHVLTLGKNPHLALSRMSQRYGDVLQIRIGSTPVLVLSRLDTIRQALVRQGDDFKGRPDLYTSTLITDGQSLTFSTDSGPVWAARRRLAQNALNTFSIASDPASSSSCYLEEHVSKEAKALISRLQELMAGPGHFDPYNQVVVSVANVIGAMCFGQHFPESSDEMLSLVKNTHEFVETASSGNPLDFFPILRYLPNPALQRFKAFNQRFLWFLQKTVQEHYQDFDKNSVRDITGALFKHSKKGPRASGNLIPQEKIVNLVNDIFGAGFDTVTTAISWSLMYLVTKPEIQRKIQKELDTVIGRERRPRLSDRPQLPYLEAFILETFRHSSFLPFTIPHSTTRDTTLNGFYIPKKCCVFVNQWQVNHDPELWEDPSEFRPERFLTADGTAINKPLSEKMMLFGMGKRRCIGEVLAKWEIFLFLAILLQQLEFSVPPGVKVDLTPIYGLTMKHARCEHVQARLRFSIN

[18] = test system: primary neurons; assay: LDH release of primary neurons after OGD; type: cell-based, mouse; settings: wild-type neurons
[19] = biological target: T7, GAPDH (Mus musculus, UniProt P16858); assay: GAPDH activity assay in primary neurons; type: cell-based
T7 construct: GAPDH activity in primary neurons; endogenous in cells; host or cells: primary neurons (mouse cortical)
Protocol: GAPDH activity was assessed using the GAPDH Activity Assay Kit (Biovision) according to the manufacture's instructions.

[20] = biological target: δ-secretase (Mus musculus, UniProt O89017); assay: Cleavage of GST-tau and GFP-APP by kidney lysates, Western blot; settings: kidney lysates with GST-tau or GFP-APP
[21] = test system: HepG2 cells; assay: COMET assay and micronucleus assay in HepG2 cells; type: cell-based, human; settings: 50 μM, 24 h
Protocol: Human hepatocellular carcinoma HepG2 cells were used to determine the genotoxicity of the compounds. The Comet Assay (single cell gel electrophoresis) was performed according to the protocol provided in the Trevigen Kit (4250-050-K). Briefly, cells were pre-treated for 24 h with vehicle control or 50 μM compounds. Cells were harvested, embedded in low-melt agarose and submerged in Lysis Buffer for 45 min at 4 °C. After incubation in Alkaline Unwinding Solution (300 mM NaOH, 1 mM EDTA) for 20 min, the cells were subjected to electrophoresis in Alkaline Unwinding Solution at 300 mA for 30 min. Slides were washed with 70% ethanol, dried and stained with SYBR Green for 30 min at room temperature. Nicked DNA was measured as percentage of tail DNA. One hundred comets were scored for each sample[39].
HepG2 cells were treated with vehicle or 50 μM compound for 24 h. Cells were washed with PBS, followed byincubation at a ratio of 1:19 in a hypotonic solution (75 mM KCl/0.9% NaCl) for 10 min at 37 °C. Next, the cells were fixed with methanol:glacial acetic acid (3:1) for 15 min at 37 °C, then rinsed and dried. Cells were stained with DAPI (2 μg ml^−1) for 30 min in the dark at room temperature, rinsed with water, dried and mounted with glycerol. One thousand cells per dish were analysed for each experiment; three independent experiments were performed.

[22] = purified recombinant enzyme, mean±s.d., read-out: IC50 AEP (δ-secretase)

T4 sequence (Q14790 217-374 limits assumed, species assumed): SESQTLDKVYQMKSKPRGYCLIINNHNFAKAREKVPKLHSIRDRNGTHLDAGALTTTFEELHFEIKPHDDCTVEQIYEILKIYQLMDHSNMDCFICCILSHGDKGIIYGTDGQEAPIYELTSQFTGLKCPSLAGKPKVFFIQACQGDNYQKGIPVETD
T4 sequence (Q14790 385-479 limits assumed, species assumed): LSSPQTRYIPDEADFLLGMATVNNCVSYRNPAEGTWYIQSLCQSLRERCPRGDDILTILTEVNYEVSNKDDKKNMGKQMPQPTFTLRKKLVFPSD
T2 sequence (P25774 115-331, species assumed): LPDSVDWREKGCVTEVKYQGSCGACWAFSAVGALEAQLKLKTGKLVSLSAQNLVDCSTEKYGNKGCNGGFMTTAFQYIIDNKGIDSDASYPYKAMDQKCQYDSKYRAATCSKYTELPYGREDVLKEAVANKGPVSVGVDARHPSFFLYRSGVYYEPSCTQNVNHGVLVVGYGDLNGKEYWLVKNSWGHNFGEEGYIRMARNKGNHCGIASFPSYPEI
Chain of cathepsin-L (P07711 114-333, species assumed): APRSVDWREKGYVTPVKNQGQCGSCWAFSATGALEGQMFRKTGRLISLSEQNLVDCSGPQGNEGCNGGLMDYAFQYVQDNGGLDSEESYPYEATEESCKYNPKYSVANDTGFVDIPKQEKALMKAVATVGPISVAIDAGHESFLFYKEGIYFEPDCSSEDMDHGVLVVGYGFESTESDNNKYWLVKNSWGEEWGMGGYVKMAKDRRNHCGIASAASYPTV
Chain of CYP2D6 (P10635 whole entry): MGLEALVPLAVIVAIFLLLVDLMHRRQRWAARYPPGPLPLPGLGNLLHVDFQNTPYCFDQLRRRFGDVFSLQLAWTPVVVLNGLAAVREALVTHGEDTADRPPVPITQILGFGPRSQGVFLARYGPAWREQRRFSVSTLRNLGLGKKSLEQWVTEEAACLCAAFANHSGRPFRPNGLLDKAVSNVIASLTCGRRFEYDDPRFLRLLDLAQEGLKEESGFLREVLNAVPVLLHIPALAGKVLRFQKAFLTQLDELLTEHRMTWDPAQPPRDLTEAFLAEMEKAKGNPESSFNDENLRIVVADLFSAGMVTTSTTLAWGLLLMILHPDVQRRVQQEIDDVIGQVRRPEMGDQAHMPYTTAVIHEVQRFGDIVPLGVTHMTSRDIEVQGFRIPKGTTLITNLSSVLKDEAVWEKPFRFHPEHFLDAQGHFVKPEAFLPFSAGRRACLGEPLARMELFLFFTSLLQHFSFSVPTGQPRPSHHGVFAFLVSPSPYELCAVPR
T7 sequence (P16858 whole entry): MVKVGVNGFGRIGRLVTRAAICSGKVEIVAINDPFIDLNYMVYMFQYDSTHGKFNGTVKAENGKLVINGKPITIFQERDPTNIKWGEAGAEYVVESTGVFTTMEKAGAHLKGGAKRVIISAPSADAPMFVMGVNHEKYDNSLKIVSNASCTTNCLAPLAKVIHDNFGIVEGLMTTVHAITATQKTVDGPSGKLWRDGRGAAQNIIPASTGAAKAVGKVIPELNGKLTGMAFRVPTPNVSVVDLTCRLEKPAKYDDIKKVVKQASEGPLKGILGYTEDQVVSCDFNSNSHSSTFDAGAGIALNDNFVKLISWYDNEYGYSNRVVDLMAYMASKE
Chain of CYP2C19 (P33261 whole entry): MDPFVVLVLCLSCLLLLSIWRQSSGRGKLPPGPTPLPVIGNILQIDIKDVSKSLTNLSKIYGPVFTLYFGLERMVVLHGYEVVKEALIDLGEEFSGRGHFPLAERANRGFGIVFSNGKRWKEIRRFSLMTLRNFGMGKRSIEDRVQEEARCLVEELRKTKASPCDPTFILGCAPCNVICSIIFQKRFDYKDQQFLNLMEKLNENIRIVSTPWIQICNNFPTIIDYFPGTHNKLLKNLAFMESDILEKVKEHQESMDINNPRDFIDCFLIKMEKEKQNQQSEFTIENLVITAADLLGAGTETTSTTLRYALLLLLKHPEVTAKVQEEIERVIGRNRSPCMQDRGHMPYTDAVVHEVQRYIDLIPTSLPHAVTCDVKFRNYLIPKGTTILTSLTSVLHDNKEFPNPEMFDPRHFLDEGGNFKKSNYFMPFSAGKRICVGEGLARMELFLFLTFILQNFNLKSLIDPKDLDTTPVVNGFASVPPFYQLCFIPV
Chain of CYP2C9 (P11712 whole entry): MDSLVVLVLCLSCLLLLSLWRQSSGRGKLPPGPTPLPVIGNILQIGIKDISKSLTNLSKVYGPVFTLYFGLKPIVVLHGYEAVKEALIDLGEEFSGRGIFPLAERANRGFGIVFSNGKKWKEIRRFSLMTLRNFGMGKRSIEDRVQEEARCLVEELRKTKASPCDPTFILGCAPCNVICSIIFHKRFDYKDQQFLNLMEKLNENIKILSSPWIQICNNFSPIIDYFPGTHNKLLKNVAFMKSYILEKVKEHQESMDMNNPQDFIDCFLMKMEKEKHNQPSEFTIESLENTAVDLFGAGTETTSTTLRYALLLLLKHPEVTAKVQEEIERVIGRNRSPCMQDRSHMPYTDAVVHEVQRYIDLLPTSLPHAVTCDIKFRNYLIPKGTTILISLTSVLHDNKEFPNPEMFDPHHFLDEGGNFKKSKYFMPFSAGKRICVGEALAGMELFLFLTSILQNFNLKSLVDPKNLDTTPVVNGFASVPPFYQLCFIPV
Chain of CYP3A4 (P08684 whole entry): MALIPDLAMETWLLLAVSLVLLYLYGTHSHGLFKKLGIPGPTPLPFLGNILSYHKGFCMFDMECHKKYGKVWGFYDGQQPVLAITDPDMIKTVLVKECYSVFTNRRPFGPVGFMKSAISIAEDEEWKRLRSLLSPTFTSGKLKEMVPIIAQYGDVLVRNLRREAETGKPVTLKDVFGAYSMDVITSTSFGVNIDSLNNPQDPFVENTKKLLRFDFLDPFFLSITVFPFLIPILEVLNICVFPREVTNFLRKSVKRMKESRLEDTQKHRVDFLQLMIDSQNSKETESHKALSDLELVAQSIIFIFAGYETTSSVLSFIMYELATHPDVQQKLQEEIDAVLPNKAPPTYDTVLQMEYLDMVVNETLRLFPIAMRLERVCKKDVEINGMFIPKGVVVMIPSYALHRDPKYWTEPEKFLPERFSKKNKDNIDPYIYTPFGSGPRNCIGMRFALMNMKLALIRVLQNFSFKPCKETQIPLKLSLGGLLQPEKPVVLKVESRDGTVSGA
Chain of δ-secretase (Mus musculus, UniProt O89017) (O89017 18-435): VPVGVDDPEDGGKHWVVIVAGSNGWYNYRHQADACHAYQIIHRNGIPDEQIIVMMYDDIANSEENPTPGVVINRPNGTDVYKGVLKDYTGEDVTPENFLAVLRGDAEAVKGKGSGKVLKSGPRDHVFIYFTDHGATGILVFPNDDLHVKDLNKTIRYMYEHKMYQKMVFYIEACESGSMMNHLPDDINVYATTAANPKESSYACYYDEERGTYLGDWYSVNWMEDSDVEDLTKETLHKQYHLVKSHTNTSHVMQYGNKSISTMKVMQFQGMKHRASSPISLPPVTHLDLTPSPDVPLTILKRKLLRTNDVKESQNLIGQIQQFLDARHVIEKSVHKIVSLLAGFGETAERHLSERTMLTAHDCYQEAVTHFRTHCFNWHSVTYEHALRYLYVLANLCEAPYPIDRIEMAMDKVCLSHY

Sc1nnc(Nc2ccccc2)s1 [compound BB1]
ligand efficiency [1]: 0.75 | IC50 ([1]; purified active δ-secretase, read-out: IC50 / potency toward δ-secretase): ~0.13 µM | IC50 [1, 22]: 0.13 ± 0.09 µM | IC50 [2]: > 200 µM | IC50 [3]: 5.66 ± 0.36 µM | IC50 [4]: > 200 µM | IC50 [5]: 28.7 ± 11.2 µM | recovery of δ-secretase activity on addition of reducing agents [6]: regained a substantial amount of activity | IC50 [7]: 1.57 ± 0.14 µM | IC50 towards δ-secretase in Pala cells [7]: slightly larger IC50 values

N#CSc1cnc(N)s1 [compound 10]
IC50 [1, 22]: 0.71 ± 0.05 µM | IC50 [2]: > 200 µM | IC50 [3]: 3.79 ± 0.29 µM | IC50 [4]: 44.6 ± 5.01 µM | IC50 [5]: > 200 µM | recovery of δ-secretase activity on addition of reducing agents [6]: regained a substantial amount of activity | IC50 [7]: 7.86 ± 5.67 µM | IC50 towards δ-secretase in Pala cells [7]: slightly larger IC50 values

CC(=O)CC(c1ccccc1)c1c(O)c2ccccc2oc1=O (centres unmarked) [Warfarin, reference compound]
Papp A→B at 2 h, 10 µM [8]: 28.5 ×10⁻⁶ cm/s | Papp B→A at 2 h, 10 µM [8]: 12.6 ×10⁻⁶ cm/s | Mean Remaining Parent (NADPH-free) [9]: 104% | Mean Remaining Parent (with NADPH) [9]: 96% | Mean Remaining Parent (NADPH-free) [10]: 100% | Mean Remaining Parent (with NADPH) [10]: 91%

CNC(=C[N+](=O)[O-])NCCSCc1ccc(CN(C)C)o1 [Ranitidine, reference compound]
Papp A→B at 2 h, 10 µM [8]: 0.8 ×10⁻⁶ cm/s

CCN(CC)c1ccc(CN2CCc3nc(C)[nH]c(=O)c3C2)c(OC)c1 [compound 64]
IC50 [1, 22]: 2.37 µM | selectivity for δ-secretase compared to cathepsin-S [2]: over 40 fold | IC50 [2]: > 100 µM | selectivity for δ-secretase compared to cathepsin-L [3]: over 40 fold | IC50 [3]: > 100 µM | selectivity for δ-secretase compared to caspase-3 [4]: about 6 fold | IC50 [4]: 15.4 ± 7.04 µM | selectivity for δ-secretase compared to caspase-8 [5]: over 40 fold | IC50 [5]: > 100 µM | A->B Papp [11]: < LLOQ | B->A Papp [11]: < LLOQ | inhibition at 10 min, 3 µM [12]: 0.6% | inhibition at 10 min, 10 µM [12]: 10.1% | inhibition at 10 min, 3 µM [13]: 1.5% | inhibition at 10 min, 10 µM [13]: -0.1% | inhibition at 10 min, 3 µM [14]: 4.6% | inhibition at 10 min, 10 µM [14]: 7.9% | inhibition at 10 min, 3 µM [15]: 34.6% | inhibition at 10 min, 10 µM [15]: 58.3% | inhibition at 10 min, 3 µM [16]: 31.6% | inhibition at 10 min, 10 µM [16]: 20.4% | inhibition at 10 min, 3 µM [17]: 23.7% | inhibition at 10 min, 10 µM [17]: 22.2% | IC50 [7]: 0.29 ± 0.21 µM

CC(C)[C@H]1CC[C@@]2(CO2)[C@H]2C(=O)OCC(C(=O)O)=C[C@H]12 [KA, koningic acid, reference compound]
neuronal injury (LDH in medium) induced by OGD [18]: neither compound 11d15 nor KA showed any neuroprotective effect | GAPDH inhibition ([19]; 2 μM): robustly blocked GAPDH | GAPDH inhibition ([19]; 50 μM): robustly blocked GAPDH | cleavage of tau and APP by δ-secretase in vitro [20]: did not affect the cleavage of tau and APP

CN(C)c1ccc(N2C(=O)C=CC2=O)cc1 [compound 22]
IC50 [1, 22]: 0.21 ± 0.01 µM | IC50 [2]: > 100 µM | IC50 [3]: > 100 µM | IC50 [4]: > 100 µM | IC50 [5]: > 100 µM | genotoxicity (COMET and micronucleus assay) [21]: show genotoxicity
